Like-named read-outs stand apart in the source and are kept apart here.
Columns and labels:
[1] = test system: soluble VEGF121 and VEGF165 isoforms; test: ELISA of soluble VEGF production in multiple human tumor cell lines (EC50); format: cell-based
Experimental: Study Design. […] In these experiments, cultures were established under normoxic conditions (21% oxygen). […] Cells requiring induction of VEGF production were incubated under hypoxic conditions (1% oxygen). At the completion of treatment, the conditioned media were collected and assayed by ELISA (as described in Section 9.1.1.1) for soluble VEGF121 and VEGF165 isoforms; results were calculated as percentage inhibition relative to vehicle treated controls. EC50 values were calculated from the dose concentration response curves.

[2] = Dose response assessment in nude mice bearing HT1080 xenografts (tumor and plasma human VEGF, tumor size, trough plasma concentration); format: in vivo; details: male, athymic nude, mouse, plasma, oral; 1 mg/kg BID, 16 hours after the first day of dosing (n=3)
Experimental: Experimental Study Design. HT1080 cells (5×10^6 cells/mouse) were implanted subcutaneously in male athymic nude mice.
Tumor size was measured using calipers at periodic intervals during the study (data shown in Section 9.2.2). […] Mice were sacrificed, and excised tumors were homogenized in buffer containing protease inhibitors. Both terminal intratumoral and pathologic plasma human VEGF levels were measured using an ELISA that recognizes human VEGF121 and VEGF165 (as described in Section 9.1.1.1). Intratumoral VEGF levels were normalized to the total tumor protein concentration, while pathologic plasma human VEGF levels were expressed in pg/mL of plasma.
Experimental Design. The experimental design was reported in Section 9.1.2.2.

[3] = In vitro plasma protein binding of 14C-Compound #10; format: in vitro ADME, mice, rats, dogs, monkeys, and humans; details: mouse, rat, dog, monkey, human, all species, read-out: plasma protein binding, overall mean
[4] = Single-dose oral toxicity study in rats; details: Sprague Dawley, rat, in vivo
Experimental: The L23 vehicle was used.
Because maximal exposure occurred at 100 mg/kg, this dose is considered the NOAEL for 1 day of dosing.

[5] = rat, in vivo

- EC50 ([1]; A-375, Melanoma, A375, hypoxic (1% oxygen), 48 hours, read-out: VEGF Inhibition Approximate EC50): ~50 nM
- EC50 ([1]; A-431, Epidermoid, A431, 48 hours, read-out: VEGF Inhibition Approximate EC50): ~10 nM
- EC50 ([1]; ASPC1, ASPC-1 (Pancreas), 48 hours, read-out: VEGF Inhibition EC50): > 30000 nM
- EC50 ([1]; Breast, MDA-MB-468, hypoxic (1% oxygen), 48 hours, read-out: VEGF Inhibition Approximate EC50): ~5 nM
- EC50 ([1]; Cervical, HeLa, hypoxic (1% oxygen), 48 hours, read-out: VEGF Inhibition Approximate EC50): ~2 nM
- EC50 ([1]; Colorectal, HCT-116, 48 hours, read-out: VEGF Inhibition Approximate EC50): ~10 nM
- EC50 ([1]; Gastric, AGS, 48 hours, read-out: VEGF Inhibition Approximate EC50): ~0.1 nM
- EC50 ([1]; Gastric, Kato III, hypoxic (1% oxygen), 48 hours, read-out: VEGF Inhibition Approximate EC50): ~10 nM
- EC50 ([1]; HCT-116, HCT116 (Colorectal), 48 hours, read-out: VEGF Inhibition EC50): 10 nM
- EC50 ([1]; HEK293 (Renal cell), 48 hours, read-out: VEGF Inhibition EC50): 10 nM
- EC50 ([1]; HPAF-2 (Pancreas), 48 hours, read-out: VEGF Inhibition EC50): > 30000 nM
- EC50 ([1]; HT-1080, Fibrosarcoma, HT1080, 48 hours, read-out: VEGF Inhibition Approximate EC50): ~10 nM
- EC50 ([1]; HT-1080, HT1080 (Fibrosarcoma), 48 hours, read-out: VEGF Inhibition EC50): 10 nM
- EC50 ([1]; HeLa (Cervical), 48 hours, read-out: VEGF Inhibition EC50): 2 nM
- EC50 ([1]; Lung, A549, 48 hours, read-out: VEGF Inhibition Approximate EC50): ~50 nM
- EC50 ([1]; Lung, Calu-6, hypoxic (1% oxygen), 48 hours, read-out: VEGF Inhibition Approximate EC50): ~7 nM
- EC50 ([1]; MDA-MB-231, 48 h, read-out: VEGF Inhibition Approximate EC50): ~5 nM
- EC50 ([1]; Neuroblastoma, SY5Y, hypoxic (1% oxygen), 48 hours, read-out: VEGF Inhibition Approximate EC50): ~5 nM
- EC50 ([1]; PL45, PL-45 (Pancreas), 48 hours, read-out: VEGF Inhibition EC50): > 30000 nM
- EC50 ([1]; Pancreas, Capan-1, hypoxic (1% oxygen), 48 hours, read-out: VEGF Inhibition Approximate EC50): ~5 nM
- EC50 ([1]; Prostate, LNCaP, hypoxic (1% oxygen), 48 hours, read-out: VEGF Inhibition Approximate EC50): ~15 nM
- EC50 ([1]; Renal cell, HEK293, 48 hours, read-out: VEGF Inhibition Approximate EC50): ~10 nM
- EC50 ([1]; SK-OV-3, Ovarian, SKOV3, hypoxic (1% oxygen), 48 hours, read-out: VEGF Inhibition Approximate EC50): ~10 nM
- EC50 ([1]; SNU1, Gastric, SNU-1, 48 hours, read-out: VEGF Inhibition Approximate EC50): ~0.1 nM
- EC50 ([1]; U-87MG (Glioblastoma), 48 hours, read-out: VEGF Inhibition EC50): > 30000 nM
- concentration at 16 h [2]: 280 nM
- fraction unbound [3]: ≤ 0.005
- dose of maximal exposures ([5]; both, Sprague Dawley, 7 days): 120 mg/kg/day
- elevation in mean cholesterol levels [5]: 2.5-3 fold
- elevation in mean glucose levels [5]: about 1.3 fold
Compound: COc1ccc([C@H]2c3[nH]c4ccc(Cl)cc4c3CCN2C(=O)Oc2ccc(Cl)cc2)cc1 (racemic) [Compound #10]
- EC50 ([1]; Lung, NCI H460, 48 hours, read-out: VEGF Inhibition Approximate EC50): ~10 nM
- EC50 ([1]; NCI H460 (Lung), 48 hours, read-out: VEGF Inhibition EC50): 10 nM
- dose of maximal exposure [4]: 100 mg/kg

From patent US20120202801A1, “METHODS FOR TREATING BREAST CANCER” (priority 2009, published 2012)
